The term remaining activity denotes the signal under treatment as a percentage of the control signal.

The source of these data is patent US8067424B2, “Selective inhibitors for cyclin-dependent kinases” (Emory University, priority 2007, dated 2011).

Assay type in all cases: biochemical
For one assay, the target named is MKK1 (Homo sapiens, UniProt Q02750). Kind of assay: Kinase screen: MKK1 assay. How it is done: (§1) Generally, the same procedure was used for all assays. Since the total assay volume was 25.5 microliters, 0.5 microliters of inhibitors at 51× assay concentration were added to the plates before any other addition.
Chain of MKK1 (Q02750 whole entry, species assumed): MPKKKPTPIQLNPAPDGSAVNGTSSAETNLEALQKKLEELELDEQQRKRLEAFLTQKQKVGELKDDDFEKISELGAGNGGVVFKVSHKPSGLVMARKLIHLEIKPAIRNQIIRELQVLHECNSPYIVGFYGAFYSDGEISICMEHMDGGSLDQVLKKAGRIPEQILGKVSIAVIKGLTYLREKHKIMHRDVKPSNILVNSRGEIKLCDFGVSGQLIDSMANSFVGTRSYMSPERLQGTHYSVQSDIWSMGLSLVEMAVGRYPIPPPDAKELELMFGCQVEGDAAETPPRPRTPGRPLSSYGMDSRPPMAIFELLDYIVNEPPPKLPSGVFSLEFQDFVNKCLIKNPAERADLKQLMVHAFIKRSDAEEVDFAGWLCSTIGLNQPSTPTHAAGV
(§2) The basic procedure was to add 0.5 microliters inhibitor/control in DMSO to plate. Fifteen microliters of enzyme/substrate/buffer mix were added and incubated for 5 min. Ten microliters MgATP at the relevant concentration were added and incubated for 30 min. The assay was stopped by adding 5 microliters of 3% orthophosphoric acid. The assay was transferred to a p81 filter plate and read in a scintillation counter of 30 sec/well. Note that this assay procedure was not followed for MKK1, which instead involved a two-step assay, and PKC alpha, which required the addition of lipid vesicles.
After incubating at room temperature for 30 min, 5 μl from the first reaction was pipetted into 20 μl of the second reaction mix containing (final concentration) 25 mM Tris pH 7.5, 0.1 mM EGTA, 0.1 mM Na3VO4, 0.66 mg/ml myelin basic protein (MBP), 10 mM magnesium acetate and 0.05 mM [33P-g-ATP] (500-1000 cpm/pmole) and incubated for 30 min at room temperature. Assays were stopped by addition of 5 μl of 0.5 M (3%) orthophosphoric acid and then harvested onto P81 Unifilter plates with a wash buffer of 50 mM orthophosphoric acid.

A further assay has as its target ERK2 (Homo sapiens, UniProt P28482). Kind of assay: Kinase screen: MAPK2/ERK2 assay. As for the experimental part: as §1, §2
MAPK2/ERK2 assay: MAPK/ERK2 (5-20 mU diluted in 50 mM Tris pH 7.5, 0.1 mM EGTA, 0.1 mM Na3VO4, 0.1% b-mercaptoethanol, 1 mg/ml BSA) was assayed against MBP in a final volume of 25.5 μl in 25 mM Tris pH 7.5, 0.1 mM EGTA, 0.33 mg/ml MBP, 10 mM magnesium acetate and 0.05 mM [33P-g-ATP] (500-1000 cpm/pmole) and incubated for 30 min at room temperature. Assays were stopped by addition of 5 μl of 0.5 M (3%) orthophosphoric acid and then harvested onto P81 Unifilter plates with a wash buffer of 50 mM orthophosphoric acid.

A further assay concerns the target T1, PKBβ (Homo sapiens, UniProt P31751, S474D).
T1 construct: ΔPH-PKBbeta (S474D) assay: ΔPH-PKBbeta-S474D (5-20 mU diluted)
Kind of assay: Kinase screen: ΔPH-PKBbeta (S474D) assay. As for the experimental part: as §1, §2
ΔPH-PKBbeta (S474D) assay: ΔPH-PKBbeta-S474D (5-20 mU diluted in 50 mM Tris pH 7.5, 0.1 mM EGTA, 0.1% b-mercaptoethanol, 1 mg/ml BSA) was assayed against a modified Crosstide peptide ([…]) (SEQ ID NO: 4) in a final volume of 25.5 μl containing 50 mM Tris pH 7.5, 0.05% b-mercaptoethanol, 30 μM substrate peptide, 10 mM magnesium acetate and 0.05 mM [33P-g-ATP] (50-1000 cpm/pmole) and incubated for 30 min at room temperature. Assays were stopped by addition of 5 μl of 0.5 M (3%) orthophosphoric acid and then harvested onto P81 Unifilter plates with a wash buffer of 50 mM orthophosphoric acid.

For a further assay, the target named is MSK1 (Homo sapiens, UniProt O75582). Kind of assay: Kinase screen: MSK1 assay. As for the experimental part: as §1, §2
Chain of MSK1 (O75582 whole entry, species assumed): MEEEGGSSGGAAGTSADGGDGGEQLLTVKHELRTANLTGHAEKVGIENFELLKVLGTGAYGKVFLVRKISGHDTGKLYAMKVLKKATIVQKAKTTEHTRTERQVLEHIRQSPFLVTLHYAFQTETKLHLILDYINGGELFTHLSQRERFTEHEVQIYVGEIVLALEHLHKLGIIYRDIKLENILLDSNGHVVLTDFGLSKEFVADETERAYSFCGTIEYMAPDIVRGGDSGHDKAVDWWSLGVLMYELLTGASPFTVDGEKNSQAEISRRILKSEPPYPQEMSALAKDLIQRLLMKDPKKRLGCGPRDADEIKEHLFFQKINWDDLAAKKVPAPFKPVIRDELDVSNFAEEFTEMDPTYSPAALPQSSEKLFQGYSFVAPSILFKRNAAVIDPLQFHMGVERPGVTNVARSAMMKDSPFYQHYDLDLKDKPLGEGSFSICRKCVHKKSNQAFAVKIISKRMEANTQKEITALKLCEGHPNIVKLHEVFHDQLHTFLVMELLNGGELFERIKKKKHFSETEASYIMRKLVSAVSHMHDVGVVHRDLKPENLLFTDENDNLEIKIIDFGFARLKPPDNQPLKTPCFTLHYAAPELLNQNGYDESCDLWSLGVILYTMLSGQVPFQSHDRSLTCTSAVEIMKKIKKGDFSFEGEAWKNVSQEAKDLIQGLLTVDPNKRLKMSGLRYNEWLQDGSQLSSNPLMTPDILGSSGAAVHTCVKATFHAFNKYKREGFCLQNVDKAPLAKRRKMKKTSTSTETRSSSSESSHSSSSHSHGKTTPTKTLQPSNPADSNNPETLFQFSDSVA
MSK1 assay: MSK1 (5-20 mU diluted in 20 mM MOPS pH 7.5, 1 mM EDTA, 0.01% Brij35, 0.1% b-mercaptoethanol, 1 mg/ml BSA) was assayed against a modified Crosstide peptide […] (SEQ ID NO: 4) in a final volume of 25.5 μl containing 8 mM MOPS pH7.0, 0.2 mM EDTA, 30 μM substrate peptide, 10 mM magnesium acetate and 0.02 mM [33P-g-ATP] (50-1000 cpm/pmole) and incubated for 30 min at room temperature Assays were stopped by addition of 5 μl of 0.5 M (3%) orthophosphoric acid and then harvested onto P81 Unifilter plates with a wash buffer of 50 mM orthophosphoric acid.

The next assay addresses T2, DYRK2 (Homo sapiens, UniProt Q92630).
T2 sequence (Q92630 1-601): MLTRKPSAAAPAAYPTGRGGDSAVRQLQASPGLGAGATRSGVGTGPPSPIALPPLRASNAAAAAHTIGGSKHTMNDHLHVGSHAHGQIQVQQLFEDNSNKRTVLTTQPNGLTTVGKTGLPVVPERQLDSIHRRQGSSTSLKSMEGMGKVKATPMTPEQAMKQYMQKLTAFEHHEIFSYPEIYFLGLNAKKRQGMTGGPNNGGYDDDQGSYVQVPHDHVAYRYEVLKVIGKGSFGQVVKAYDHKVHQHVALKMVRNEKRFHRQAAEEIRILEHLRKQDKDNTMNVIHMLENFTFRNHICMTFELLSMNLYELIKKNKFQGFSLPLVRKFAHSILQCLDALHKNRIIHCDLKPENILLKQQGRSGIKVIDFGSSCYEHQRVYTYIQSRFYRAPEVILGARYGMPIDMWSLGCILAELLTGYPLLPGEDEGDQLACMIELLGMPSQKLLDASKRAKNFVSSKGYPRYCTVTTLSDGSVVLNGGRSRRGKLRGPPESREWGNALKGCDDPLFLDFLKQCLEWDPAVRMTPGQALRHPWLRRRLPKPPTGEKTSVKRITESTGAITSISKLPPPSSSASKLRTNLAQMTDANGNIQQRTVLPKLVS
Kind of assay: Kinase screen: DYRK2 assay. How it is done: as §1, §2
DYRK2 assay: DYRK2 (5-20 mU of diluted in 50 mM Tris pH7.5, 0.1 mM EGTA) was assayed against Woodtide ([…]) (SEQ ID NO: 29) in a final volume of 25.5 μ1 containing 50 mM Tris pH 7.5, 0.1 mM EGTA, 350 μM substrate peptide, 10 mM Magnesium acetate and 0.05 mM [33P-g-ATP] (50-1000 cpm/pmole) and incubated for 30 min at room temperature. Assays were stopped by addition of 5 μl of 0.5 M (3%) orthophosphoric acid and then harvested onto P81 Unifilter plates with a wash buffer of 50 mM orthophosphoric acid.

Setting [1] is: 10 micromolar compound, read-out: mean activity remaining (as a percentage of the original activity), MKK1.
The mark [2] stands for this setting: 10 micromolar compound, read-out: mean activity remaining (as a percentage of the original activity), ERK2.
[3] abbreviates: 0.5 h, 10 micromolar compound, read-out: mean activity remaining (as a percentage of the original activity), PKBb.
[4] abbreviates: 10 micromolar compound, read-out: mean activity remaining (as a percentage of the original activity), MSK1.
Setting [5] is: 10 micromolar compound, read-out: mean activity remaining (as a percentage of the original activity), DYRK 2.

Read-outs that look alike come from different tables or passages of the source.

T1 sequence (P31751 120-481 S474D limits assumed, species assumed): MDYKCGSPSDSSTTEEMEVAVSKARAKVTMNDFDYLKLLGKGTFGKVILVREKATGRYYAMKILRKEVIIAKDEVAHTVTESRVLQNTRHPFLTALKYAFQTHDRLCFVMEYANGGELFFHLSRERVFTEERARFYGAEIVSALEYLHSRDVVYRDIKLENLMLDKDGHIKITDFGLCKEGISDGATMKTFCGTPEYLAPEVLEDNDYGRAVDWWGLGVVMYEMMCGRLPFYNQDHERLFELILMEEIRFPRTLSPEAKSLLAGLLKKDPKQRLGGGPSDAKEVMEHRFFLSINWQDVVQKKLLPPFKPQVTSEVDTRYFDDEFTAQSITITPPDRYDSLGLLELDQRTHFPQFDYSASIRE
Chain of ERK2 (P28482 whole entry, species assumed): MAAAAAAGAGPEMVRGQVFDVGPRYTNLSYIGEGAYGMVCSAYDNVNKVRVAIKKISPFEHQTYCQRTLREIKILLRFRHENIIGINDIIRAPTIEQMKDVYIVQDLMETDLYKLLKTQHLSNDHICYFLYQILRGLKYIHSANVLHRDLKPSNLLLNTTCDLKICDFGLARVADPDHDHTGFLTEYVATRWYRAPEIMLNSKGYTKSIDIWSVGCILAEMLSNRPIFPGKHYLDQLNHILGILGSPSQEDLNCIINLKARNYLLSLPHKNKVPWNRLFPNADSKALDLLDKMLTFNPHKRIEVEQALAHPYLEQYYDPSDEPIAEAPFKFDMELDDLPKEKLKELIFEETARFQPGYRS

`CC(C)c1cnn2c(NCc3ccccc3)cc(NCCCCCCCN)nc12` [BS-181]: the remaining activity at 10 µM on MKK1 (MKK1, 10 μM, read-out: Mean Remaining Enzyme Activity (%)) turned out to be 96%; at ERK2 (ERK2, 10 μM, read-out: Mean Remaining Enzyme Activity (%)) it was 86%; at PKBβ (PKBβ, 10 μM, read-out: Mean Remaining Enzyme Activity (%)), 81%; at MSK1 (MSK1, 10 μM, read-out: Mean Remaining Enzyme Activity (%)), 65%; at DYRK2 (DYRK2, 10 μM, read-out: Mean Remaining Enzyme Activity (%)), 94%.

With `C=C[C@H](CO)Nc1cc(NCc2ccccc2)n2ncc(C(C)C)c2n1` [ICEC0065], the remaining activity at 10 µM stood at 107% on MKK1 (setting [1]); 59% at ERK2 (setting [2]); 109% on PKBβ (setting [3]); 88% on MSK1 (setting [4]); 90% on DYRK2 (setting [5]).

As for `CC(C)c1cnn2c(NCc3ccccc3)cc(N[C@@H](CO)[C@H](O)CO)nc12` [ICEC0318, (3S)-3-(7-(Benzylamino)-3-isopropylpyrazolo[1,5-a]pyrimidin-5-ylamino)butane-1,2,4-triol], the remaining activity at 10 µM on MKK1 (setting [1]) was 65%; on ERK2 (setting [2]) it was 26%; on PKBβ (setting [3]), 105%; on MSK1 (setting [4]), 96%; on DYRK2 (setting [5]) it was 75%.

As to `CC(C)c1cnn2c(NCc3ccccc3F)cc(NCCCCCN)nc12` [ICEC-0232], the “mean activity remaining (as a percentage of the original activity), MKK1” value at MKK1 (10 micromolar compound) was determined as 83%. The “mean activity remaining (as a percentage of the original activity), ERK2” value at ERK2 (10 micromolar compound) amounted to 70%. Further, the “mean activity remaining (as a percentage of the original activity), PKBb” value at PKBβ (10 micromolar compound) amounted to 76%. Besides, at MSK1 (10 micromolar compound), the “mean activity remaining (as a percentage of the original activity), MSK1” value is 42%. Moreover, the “mean activity remaining (as a percentage of the original activity), DYRK 2” value on DYRK2 (10 micromolar compound) stood at 68%.

`CC[C@H](CO)Nc1cc(NCc2ccccc2)n2ncc(C(C)C)c2n1` [ICEC0067]: the remaining activity at 10 µM at MKK1 (setting [1]) was found to be 44%; at ERK2 (setting [2]), 59%; on PKBβ (setting [3]) it was 102%; on MSK1 (setting [4]), 86%; on DYRK2 (setting [5]) it was 90%.
